Laboratory results: patent US9145382B2, “Organic compound and electrochromic device using the same” (CANON KABUSHIKI KAISHA, priority 2014, dated 2015)

Columns and labels:
Format in all cases: physicochemical
[1] = Absorption spectrum in the oxidized (colored) state, oxidation at constant potential; settings: 5.0×10^−4 mol/L in 0.1 mol/L tetrabutylammonium perchlorate in propylene carbonate
Method: Next, the absorption spectra in the oxidized (colored) state were measured. Specifically, the absorption spectra were measured using a measuring cell provided with a work electrode, a counter electrode, a reference electrode and a liquid tank. Here, the electrodes provided in the measuring cell and the solute and solvent which are contained in the solution charged to the liquid tank will be shown below.
(§1) Counter electrode: Platinum
(§2) Reference electrode: Silver
Solute: Evaluation target compounds (illustrated compounds A-1 and A-3)
Solvent (supporting electrolyte): Solution of tetrabutylammonium perchlorate in propylene carbonate (0.1 mol/L)
(Note that the concentration of the solution charged to the liquid tank is 5.0×10^−4 mol/L.)
A compound was subjected to oxidation at a constant potential by applying a potential equal to or higher than the oxidation potential of the compound using the measuring cell to thereby measure the change in the absorption spectra and transmittance spectra. Here, the absorption peak wavelength in the colored state (oxidized state) and the absorption peak wavelength in the bleached state (neutral state) are shown in the following Table 3.

[2] = Durable stability against oxidation-reduction cycle (square-wave potential program, CV oxidation peak current); settings: for Durability evaluation: change in oxidation peak current (CV) before and after 10000 oxidation-reduction cycles, 1.0×10^−4 mol/L in 0.1 mol/L tetrabutylammonium perchlorate in dichloroethane
Method: The durable stability against the oxidation-reduction cycle of the organic EC compound according to the present invention was evaluated. Specifically, the durability against repetition of an oxidation-reduction was evaluated using the illustrated compound A-1, the illustrated compound A-3 and Ref-1 as evaluation targets.
The measurement of durability against repetition of an oxidation-reduction was performed using a solution prepared by dissolving each compound in a predetermined solvent as a target sample, using a measuring apparatus provided with a work electrode, a counter electrode and a reference electrode. Here, the electrodes provided in the measuring apparatus and the solvent used will be shown below.
Work electrode: Glassy carbon
as §1, §2
Supporting electrolyte (solvent): Solution of tetrabutylammonium perchlorate in dichloroethane (0.1 mol/L)
Solution concentration: 1.0×10^−4 mol/L
The above solution was subjected to a square-wave potential program including oxidation at a constant potential and reduction at a constant potential for 10000 times. Here, the oxidation at a constant potential is a process of applying a potential equal to or higher than the oxidation potential of a target compound to the above solution for 10 seconds, and the reduction at a constant potential is a process of applying a potential of 0 V based on the reference electrode (Ag/Ag^+) to the above solution for 10 seconds.
The durability against repetition of an oxidation-reduction was evaluated based on the change in the amount of oxidation peak current in cyclic voltammetry (CV) measurement before and after the oxidation-reduction cycles for 10000 times. Specifically, when the rate of change in the amount of oxidation peak current was less than 20%, the durability was evaluated as Good, and when the rate of change was 20% or more, the durability was evaluated as Poor.

[3] = Absorption spectrum in the neutral (bleached) state, UV-visible spectrophotometer; settings: in chloroform
Method: The illustrated compound A-1 obtained was dissolved in chloroform, and the resulting solution was measured using an ultraviolet and visible spectrophotometer (V-560 manufactured by JASCO Corporation). As a result, an absorption spectrum illustrated in FIG. 6 was obtained.
Solutions prepared by dissolving compounds synthesized in Examples in chloroform were measured for the absorption spectra in the neutral state (bleached state) using an ultraviolet and visible spectrophotometer (V-560 manufactured by JASCO Corporation).

[4] = Measurement of solubility in propylene carbonate; settings: for solubility: organic solvent or mixture
Text: [Measurement of Solubility in Propylene Carbonate]
Note that propylene carbonate is a solvent contained in the electrochromic layer constituting the EC device. Further, Ref-1 is a compound in which methyl groups having no ethylene oxide chains are substituted at the 3-position and the 4-position of the thiophene ring, and substituents (substituents corresponding to A1 and A2 in general formula [1]) at the ortho positions of the phenyl group bonded to the thiophene ring are hydrogen atoms (no substitution).

Oxidized absorption λmax′ [1] [nm] | Neutral absorption λmax ([3]; neutral (bleached) state) [nm] | Structure (SMILES) | Durability evaluation [2] | absorption in the visible light region (neutral state) [3] | solubility [4] [mM] | number of oxidation-reduction cycles after which the amount of oxidation peak current was decreased by 20% ([2]; square-wave potential program, 10 s oxidation / 10 s reduction) | appearance of solution when a concentration of 6 mM was going to be prepared ([4]; 6 mM)
415.8 | 282.0 | COCCOCc1c(-c2c(OC)cccc2OC(C)C)sc(-c2c(OC)cccc2OC(C)C)c1COCCOC [A-1] | Good (when the rate of change in the amount of oxidation peak current was less than 20%, the durability was evaluated as Good) | does not have absorption over the whole visible light region | ≥ 150 | – | –
– | – | Cc1c(-c2ccccc2)sc(-c2ccccc2)c1C [Ref-1] | Poor (when the rate of change was 20% or more, the durability was evaluated as Poor) | – | < 6 | about 2400 times | turbid
